From the NIST ThermoML archive (doi:10.1016/j.jct.2019.01.022)
± gives the expanded uncertainty stated by the source.

Tests used:
[1] = Molar enthalpy of transition or fusion; settings: DSC
[2] = for mass density: 293 K, 101.33 kPa, Pycnometric method; for vapor or sublimation pressure: Transpiration method; for Normal melting temperature: DTA

CC(C)NC(=O)Nc1ccccc1 [1-isopropyl-3-phenylurea]
Crystal
Settings	Molar enthalpy of transition or fusion [kcal/mol]	Normal melting temperature [°C]	mass density [kg/m3]
[1]	5.35 ± 0.55	–	–
[2]	–	156.2 ± 2	1050 ± 20

[2], Crystal
Settings	vapor or sublimation pressure [kPa]
393.3 K	0.00201 ± 0.00015
396.2 K	0.00261 ± 0.00017
400.3 K	0.00373 ± 0.00025
403.2 K	0.00478 ± 0.00031
406.5 K	0.00631 ± 0.00044
409.6 K	0.00835 ± 0.00056
411.7 K	0.00986 ± 0.00066
413.7 K	0.01159 ± 0.00077
416.5 K	0.01436 ± 0.00094
419.6 K	0.01814 ± 0.0012
421.5 K	0.02123 ± 0.0014
423.8 K	0.02493 ± 0.0016

NC(=O)Nc1ccccc1 [N-phenylurea]
[2], Crystal
Settings	vapor or sublimation pressure [kPa]
386 K	0.00061 ± 5e-05
391.7 K	0.00103 ± 7e-05
396.2 K	0.00154 ± 0.0001
399.5 K	0.00209 ± 0.00015
402.4 K	0.00275 ± 0.00018
406.2 K	0.00394 ± 0.00025
408.3 K	0.0047 ± 0.0003
411.5 K	0.00607 ± 0.00043
413.6 K	0.00714 ± 0.00048

CC(C)(C)NC(=O)Nc1ccccc1 [1-tert-butyl-3-phenylurea]
Settings	Molar enthalpy of transition or fusion, Crystal 1 [kcal/mol]	Molar enthalpy of transition or fusion, Crystal 2 [kcal/mol]	Normal melting temperature, Crystal 1 [°C]	Triple point temperature, Crystal 2, DSC [K]	mass density, Crystal 2 [kg/m3]
[1]	5.9 ± 0.598	1.86 ± 0.191	–	–	–
[2]	–	–	168 ± 2	432 ± 2.1	1062 ± 20

[2], Crystal 2
Settings	vapor or sublimation pressure [kPa]
385.9 K	0.00162 ± 0.00012
390 K	0.00233 ± 0.00015
392.4 K	0.00294 ± 0.0002
396.3 K	0.00405 ± 0.00027
400.2 K	0.00579 ± 0.00041
403.3 K	0.00737 ± 0.00051
406.2 K	0.00973 ± 0.00067
410.5 K	0.01397 ± 0.00092
416.2 K	0.02115 ± 0.0014
420.6 K	0.03129 ± 0.002
424 K	0.03902 ± 0.0025
426.6 K	0.0483 ± 0.0031
428.8 K	0.05831 ± 0.0037
430.5 K	0.066 ± 0.0042
